The CheMixHub ionic liquid set
± gives the uncertainty stated by the source.

Assay: xn = mol fraction of the nth substance listed

CC[NH+](C)CC.O=S(=O)([O-])C(F)(F)F + O + CC[NH+](C)CC.CS(=O)(=O)[O-]
viscosity [mPa·s], 101 kPa
Settings	x2 = 0.027, x1 = 0.973	x2 = 0.05, x1 = 0.717	x2 = 0.07, x1 = 0.498	x2 = 0.089, x1 = 0.309	x2 = 0.107, x1 = 0.143	x2 = 0.114, x1 = 0.069
293.15 K	53.3 ± 3.8	78.1 ± 5.6	101.7 ± 7.4	116.8 ± 8.5	125.2 ± 9.1	128.3 ± 9.4
313.15 K	25.8 ± 1.8	34 ± 2.4	40.9 ± 2.9	44.4 ± 3.1	45.8 ± 3.2	46.1 ± 3.3
333.15 K	14.6 ± 1	17.9 ± 1.3	20.4 ± 1.4	21.4 ± 1.5	21.6 ± 1.5	21.7 ± 1.5
353.15 K	9.18 ± 0.65	10.7 ± 0.76	11.74 ± 0.83	12.07 ± 0.85	12.03 ± 0.85	12.06 ± 0.85

CCCC[n+]1ccn(C)c1.F[B-](F)(F)F + O + NCCO
100 kPa, x1 = 0.2723, x2 = 0.2627
Settings	viscosity [mPa·s]
303 K	16.89 ± 0.37
308 K	13.81 ± 0.3
318 K	9.78 ± 0.21
323 K	8.34 ± 0.18

CCCCCCCCn1cc[n+](C)c1.O=S(=O)([N-]S(=O)(=O)C(F)(F)F)C(F)(F)F + O=C1CCCO1
100 kPa, frequency 0.005 MHz
Settings	electrical conductivity [S/m]
293.15 K, x2 = 0.5048	0.325 ± 0.01
298.15 K, x2 = 0	0.136 ± 0.004
298.15 K, x2 = 0.6963	0.703 ± 0.021
303.15 K, x2 = 0.9514	0.796 ± 0.026
308.15 K, x2 = 0	0.207 ± 0.006
313.15 K, x2 = 0.2993	0.401 ± 0.012
318.15 K, x2 = 0	0.307 ± 0.009
318.15 K, x2 = 0.0997	0.342 ± 0.01
318.15 K, x2 = 0.8999	1.5 ± 0.046
323.15 K, x2 = 0.2993	0.534 ± 0.016
323.15 K, x2 = 0.9514	1.03 ± 0.035

CCC[N+]1(C)CCCC1.O=S(=O)([N-]S(=O)(=O)C(F)(F)F)C(F)(F)F + O=C1CCCO1
101 kPa, frequency 0.0005 MHz
Settings	electrical conductivity [S/m]
278.15 K, x1 = 0.3874	0.573 ± 0.023
308.15 K, x1 = 0.1741	1.63 ± 0.065
328.15 K, x1 = 0.06566	1.63 ± 0.065
348.15 K, x1 = 0.1741	2.59 ± 0.1
348.15 K, x1 = 0.3874	2.27 ± 0.09
358.15 K, x1 = 0.06566	2.1 ± 0.084

101 kPa
Settings	viscosity [mPa·s]
278.15 K, x1 = 1	163.6 ± 7
288.15 K, x1 = 0.1741	5.49 ± 0.22
328.15 K, x1 = 0.1741	2.63 ± 0.11
338.15 K, x1 = 0.06566	1.491 ± 0.061
338.15 K, x1 = 0.1741	2.274 ± 0.092
348.15 K, x1 = 0.1741	1.993 ± 0.081
358.15 K, x1 = 0.1741	1.768 ± 0.072
358.15 K, x1 = 1	10.34 ± 0.42

CCC1COC(=O)O1 (stereo unspecified) + O=S(=O)([N-]S(=O)(=O)C(F)(F)F)C(F)(F)F.[Li+]
298.1 K, 100 kPa, x2 = 0.333
Settings	electrical conductivity [S/m]	viscosity [mPa·s]
–	0.02 ± 0.01	323 ± 20

CCC1COC(=O)O1 (stereo unspecified) + O=S(=O)([N-]S(=O)(=O)C(F)(F)F)C(F)(F)F.[Li+] + COC(=O)OC
298.15 K, 100 kPa
Settings	viscosity [mPa·s]
x2 = 0.333, x3 = 0	323 ± 20
x2 = 0.333, x3 = 0.3335	157 ± 7
x2 = 0.333, x3 = 0.5002	93.7 ± 3.4

CCCC[n+]1ccn(C)c1.F[B-](F)(F)F + OCC(F)(F)F
101 kPa, x2 = 0
Settings	viscosity [mPa·s]
278.15 K	360 ± 11
283.15 K	255 ± 7
288.15 K	186 ± 5
293.15 K	139 ± 3
298.15 K	106 ± 2
303.15 K	82.2 ± 1.7
308.15 K	65 ± 1.3
313.15 K	52.2 ± 1.1
318.15 K	42.6 ± 0.9
323.15 K	35.2 ± 0.7
328.15 K	29.5 ± 0.6
333.15 K	25 ± 0.5

CC[n+]1ccn(C)c1.N#C[N-]C#N + OCC(F)(F)F
100 kPa
Settings	viscosity [mPa·s]
298.15 K, x1 = 0.2936	4.06 ± 0.6
298.15 K, x1 = 0.3935	5.03 ± 0.6
303.15 K, x1 = 0.1031	2.18 ± 0.6
303.15 K, x1 = 0.5915	6.32 ± 0.6
308.15 K, x1 = 0.8915	8.72 ± 0.61
313.15 K, x1 = 1	8.86 ± 0.61
318.15 K, x1 = 0.1957	2.07 ± 0.6
318.15 K, x1 = 0.2936	2.62 ± 0.6

CC[n+]1ccn(C)c1.N#C[N-]C#N + OCC(F)(F)F + CCO
viscosity [mPa·s], 100 kPa
Settings	298.15 K	303.15 K	308.15 K	313.15 K	318.15 K
x1 = 0.0355, x2 = 0.8508	–	0.27 ± 0.2	0.22 ± 0.2	0.16 ± 0.2	0.15 ± 0.2
x1 = 0.0692, x2 = 0.8058	0.93 ± 0.2	0.78 ± 0.2	0.7 ± 0.2	0.61 ± 0.2	0.57 ± 0.2
x1 = 0.1059, x2 = 0.7569	1.52 ± 0.6	1.32 ± 0.6	1.19	1.07	1
x1 = 0.1341, x2 = 0.7174	1.96 ± 0.6	1.71 ± 0.6	1.55 ± 0.6	1.41 ± 0.6	1.31 ± 0.6
x1 = 0.1703, x2 = 0.668	2.49 ± 0.6	2.19 ± 0.6	1.99 ± 0.6	1.82 ± 0.6	–
x1 = 0.2026, x2 = 0.6226	2.94 ± 0.6	2.59 ± 0.6	2.36 ± 0.6	2.16 ± 0.6	–
x1 = 0.2373, x2 = 0.574	3.4 ± 0.6	3.01 ± 0.6	2.74 ± 0.6	2.51 ± 0.6	–
x1 = 0.2705, x2 = 0.5266	3.82 ± 0.6	3.39 ± 0.6	3.09 ± 0.6	2.82 ± 0.6	–
x1 = 0.3059, x2 = 0.4761	4.24 ± 0.6	3.77 ± 0.6	3.43 ± 0.6	3.14 ± 0.6	–
x1 = 0.3367, x2 = 0.4558	4.59 ± 0.6	4.1 ± 0.6	3.72 ± 0.6	3.39 ± 0.6	–
x1 = 0.3741, x2 = 0.4288	5 ± 0.6	4.47 ± 0.6	4.05 ± 0.6	3.69 ± 0.6	–
x1 = 0.4093, x2 = 0.4055	5.37 ± 0.6	4.8 ± 0.6	4.35 ± 0.6	3.95 ± 0.6	–
x1 = 0.4361, x2 = 0.3894	5.63 ± 0.6	5.04 ± 0.6	4.56 ± 0.6	4.14 ± 0.6	–
x1 = 0.4751, x2 = 0.3581	6.01 ± 0.6	5.38 ± 0.6	4.86 ± 0.6	4.41 ± 0.6	–
x1 = 0.5091, x2 = 0.3393	6.33 ± 0.6	5.67 ± 0.6	5.11 ± 0.6	4.62 ± 0.6	–
x1 = 0.539, x2 = 0.314	6.6 ± 0.6	5.91 ± 0.6	5.32 ± 0.6	4.81 ± 0.6	–
x1 = 0.576, x2 = 0.2854	6.92 ± 0.6	6.19 ± 0.6	5.57 ± 0.6	5.03 ± 0.6	–
x1 = 0.6046, x2 = 0.2689	7.16 ± 0.6	6.41 ± 0.6	5.75 ± 0.6	5.19 ± 0.6	–
x1 = 0.6344, x2 = 0.2517	7.42 ± 0.61	6.62 ± 0.6	5.94 ± 0.6	5.36 ± 0.6	–
x1 = 0.673, x2 = 0.2236	7.74 ± 0.61	6.9 ± 0.6	6.18 ± 0.6	5.57 ± 0.6	–
x1 = 0.7094, x2 = 0.2009	8.04 ± 0.61	7.15 ± 0.61	6.4 ± 0.6	5.77 ± 0.6	–
x1 = 0.7331, x2 = 0.1948	8.23 ± 0.61	7.31 ± 0.61	6.54 ± 0.6	5.9 ± 0.6	–
x1 = 0.7722, x2 = 0.1661	8.55 ± 0.61	7.57 ± 0.61	6.77 ± 0.6	6.11 ± 0.6	–
x1 = 0.8061, x2 = 0.1434	8.84 ± 0.61	7.79 ± 0.61	6.97 ± 0.61	6.29 ± 0.6	–

CCCC[n+]1ccn(C)c1.F[B-](F)(F)F + OCCO
298.15 K, 100 kPa, x1 = 1
Settings	electrical conductivity [S/m]	viscosity [mPa·s]
–	0.243 ± 0.002	104.7 ± 2.6

CCCC[n+]1ccn(C)c1.F[B-](F)(F)F + OCCOCCOCCOCCO
Settings	viscosity [mPa·s]
298.15 K, 101 kPa, x2 = 0	94.4 ± 3

CCCC[n+]1ccn(C)c1.O=C([O-])C(F)(F)F + OCCOCCOCCOCCO
298.15 K, 101 kPa
Settings	viscosity [mPa·s]
x2 = 0	71.1 ± 1.9
x2 = 0.5	71 ± 1.9

CCCCCCCCn1cc[n+](C)c1.O=S(=O)([N-]S(=O)(=O)C(F)(F)F)C(F)(F)F + c1ccccc1
293 K, 101 kPa
Settings	viscosity [mPa·s]
x1 = 0.2	7.34
x1 = 0.6	46.2

CCCC[n+]1ccn(C)c1.F[B-](F)(F)F + c1ccncc1
298.15 K, 101 kPa, x2 = 0
Settings	electrical conductivity [S/m]	viscosity [mPa·s]
–	0.194 ± 0.023	116 ± 40
